According to patent publication US11628164B2, “Composition containing salsolinol for treating liver cancer” (SUNGSHIN WOMEN'S UNIVERSITY R&DB FOUNDATION, priority 2020, dated 2023):

System: SK-Hep1
Assay: MTT cell viability, male-derived liver cancer cell line
Format: cell-based, human
Conditions: SK-Hep1, 5-100 μM salsolinol
Experimental: SK-Hep1 and SNU387, which are human-derived hepatoma cell lines, are distributed from Korea Cell Line Bank. […] The SK-Hep1 and the SNU387 are cultured in a medium including a minimum essential medium (Dulbecco Modified Eagle Medium, DMEM) (Gibco BRL grand Island, N.Y., USA) and in a medium containing 10% FBS (HyClone Lab, Inc, Logan, Utah, USA), 100 U/ml penicillin. (penicillin) and 100 μg/ml streptomycin (Gibco, Grand Island, N.Y., USA) at 37° C. in an atmosphere of 5% CO2. The cultured liver cancer cell lines (SK-HEP1 and SNU387) are dispensed into each well of a 48-well plate so as to have a concentration of 5×10^4 cells. After culturing for 24 hours, the sample is treated with the salsolinol for 24 hours, 48 hours, and 72 hours so as to have a concentration of 5 μM, 15 μM, 25 μM, 50 μM, or 100 μM. After that, 250 μl of 0.5 mg/ml MTT solution (Sigma, St Louis, Mo., US) is added to each well and reacted at 37° C. for 1 hour. After removing the solution, MTT-formazione is lysed and washed with 250 μl of DMSO (Dimethylsulfoxide, Duksan, Gyeonggi, Korea), and then, the absorbance at 540 nm is measured by using a SpectraMax 190 microplate plate reader (Molecular Devices, LCC. San Jose, Calif.). […]

CC1NCCc2cc(O)c(O)cc21 (centres unmarked) [salsolinol, 6,7-dihydroxy-1-methyl-1,2,3,4-tetrahydroisoquinoline]
cell viability (MTT) (48 and 72 hours): degree of decrease in cell viability according to the treatment concentration of salsolinol increases
cell viability (MTT) (24 hours): cell viability decreases as the concentration of salsolinol increases
